Assay results as given in patent publication EP4610269A1, “UROKINASE PLASMINOGEN ACTIVATOR SURFACE RECEPTOR (UPAR) LIGANDS FOR DIAGNOSTIC OR THERAPEUTIC USE” (3B Pharmaceuticals GmbH, priority 2024, dated 2025).
*1 amine or outer side, *2 acyl side, *3 side chain or, on linkers, in order; H or OH if unused. Where a SMILES comes first, the peptide text is derived from it. Bridges are numbered along the chain shown (N, C = ends). [ ]: non-standard residue; d: D form. The star is where a group is joined. Pro(trans-4-NH2) = O=C([C@@H]1C[C@@H](N[*:3])CN1[*:1])[*:2]; DOTA = O=C(O)CN1CCN(CC(=O)O)CCN(CC(=O)*)CCN(CC(=O)O)CC1; Hyp = O=C(O)[C@@H]1C[C@@H](O)CN1; 3Pal = N[C@@H](Cc1cccnc1)C(=O)O; Pentanoyl(4-Me) = CC(C)CCC(=O)*; Cit = NC(=O)NCCC[C@H](N)C(=O)O; Suc = O=C(CCC(=O)[*:2])[*:1]; Nva = CCC[C@H](N)C(=O)O; Pentanoyl = CCCCC(=O)*; AEEA = NCCOCCOCC(=O)O

Columns and labels:
[1] = Plasma stability assay (mouse plasma); assay type: in vitro ADME; conditions: mouse plasma (sodium citrate 3.7%), 37°C, LC-MS quantification, read-out: % intact compound remaining after 6h incubation Mouse plasma
How it was run: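 Compound from a 0.5 mM DMSO stock was spiked into sodium-citrate human or mouse plasma and incubated at 37°C for 0 and 6 h in duplicate. After protein precipitation with internal standard, intact compound was quantified by UHPLC-Q-TOF MS (positive ESI) against matrix calibration, reported as % remaining after 6 h.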

[2] = molecular target: T1, uPAR-expressing HEC-265 human endometrial adenocarcinoma cells (Homo sapiens, UniProt Q03405); test: Competitive FACS binding assay; conditions: pIC50 category of FACS binding
T1 construct: Cell surface uPAR-expressing HEC-265 human endometrial adenocarcinoma cells; host or cells: HEC-265
How it was run: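 HEC-265 cells incubated 1 h at 4 °C with 10 nM biotinylated uPAR peptide tracer plus increasing test compound, then stained with APC-streptavidin on ice. Median APC fluorescence by flow cytometry; 4PL fit gives pIC50.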

T1 sequence (Q03405 23-335): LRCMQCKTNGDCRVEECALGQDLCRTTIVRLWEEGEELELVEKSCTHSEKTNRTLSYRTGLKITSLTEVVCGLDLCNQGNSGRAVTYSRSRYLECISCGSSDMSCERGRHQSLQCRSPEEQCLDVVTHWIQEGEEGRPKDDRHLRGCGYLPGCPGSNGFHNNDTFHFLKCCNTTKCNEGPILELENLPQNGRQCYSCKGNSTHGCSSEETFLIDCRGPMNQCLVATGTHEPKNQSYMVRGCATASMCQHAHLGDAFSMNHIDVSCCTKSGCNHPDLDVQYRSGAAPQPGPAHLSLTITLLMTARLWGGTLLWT

Structure (SMILES)	remaining at 6 h, 9.8 µM [1] [%]	IC50 [2] [nM]
CC[C@H](C)[C@@H]1NC(=O)[C@@H]2CCCN2C(=O)[C@@H]2CCCN2C(=O)[C@H](Cc2ccccc2)NC(=O)[C@H](Cc2ccc(O)cc2)NC(=O)[C@H](CCC(N)=O)NC(=O)[C@H](CCCNC(N)=O)NC(=O)[C@@H](NC(=O)[C@H](CC(C)C)NC(=O)COCCOCCNC(=O)CN2CCN(CC(=O)O)CCN(CC(=O)O)CCN(CC(=O)O)CC2)CSSC[C@@H](C(N)=O)NC(=O)[C@H](CC(C)C)NC1=O [UPAR-229, DOTA-O2Oc-Leu-[Cys-Cit-Gln-Tyr-Phe-Pro-Pro-Ile-Leu-Cys]-NHz] ({DOTA-AEEA}-LC[Cit]QYFPPILC-NH2; disulfide 2-11)	90	≤ 10
CC[C@H](C)[C@@H]1NC(=O)[C@@H](C)NC(=O)[C@@H]2CCCN2C(=O)[C@H](Cc2ccccc2)NC(=O)[C@H](Cc2ccc(O)cc2)NC(=O)[C@H](CCC(N)=O)NC(=O)[C@H](CCCNC(N)=O)NC(=O)[C@@H](NC(=O)[C@H](CC(C)C)NC(=O)CN2CCN(CC(=O)O)CCN(CC(=O)O)CCN(CC(=O)O)CC2)CSSC[C@@H](C(N)=O)NC(=O)[C@H](CC(C)C)NC1=O [UPAR-441, DOTA-Leu-[Cys-Cit-Gln-Tyr-Phe-Pro-ala-Ile-Leu-Cys]-NH2] ({DOTA}-LC[Cit]QYFP[dA]ILC-NH2; disulfide 2-11)	83	39.8 to 100
CCCCC(=O)N[C@H]1CSSC[C@@H](C(N)=O)NC(=O)[C@H](CCC)NC(=O)[C@H]([C@@H](C)CC)NC(=O)[C@@H]2C[C@@H](O)CN2C(=O)[C@@H]2CCCN2C(=O)[C@H](Cc2ccccc2)NC(=O)[C@H](Cc2ccc(O)cc2)NC(=O)[C@H](CCCCNC(=O)CN2CCN(CC(=O)O)CCN(CC(=O)O)CCN(CC(=O)O)CC2)NC(=O)[C@H](CCCNC(N)=O)NC1=O [UPAR-261, Pent-[Cys-Cit-Lys(DOTA)-Tyr-Phe-Pro-Hyp-Ile-Nva-Cys]-NH2] (Pentanoyl-C[Cit]K(DOTA)YFP[Hyp]I[Nva]C-NH2; disulfide 1-10)	82	≤ 10
CCCCC(=O)N[C@H]1CSSC[C@@H](C(N)=O)NC(=O)[C@H](CCC)NC(=O)[C@H]([C@@H](C)CC)NC(=O)[C@@H]2C[C@@H](O)CN2C(=O)[C@@H]2CCCN2C(=O)[C@H](Cc2ccccc2)NC(=O)[C@H](Cc2cccnc2)NC(=O)[C@H](CCCCNC(=O)CN2CCN(CC(=O)O)CCN(CC(=O)O)CCN(CC(=O)O)CC2)NC(=O)[C@H](CCCNC(N)=O)NC1=O [UPAR-138, Pent-[Cys-Cit-Lys(DOTA)-Mpa-Phe-Pro-Hyp-Ile-Nva-Cys]-NH2] (Pentanoyl-C[Cit]K(DOTA)[3Pal]FP[Hyp]I[Nva]C-NH2; disulfide 1-10)	91	≤ 10
CC[C@H](C)[C@@H]1NC(=O)[C@@H]2C[C@@H](O)CN2C(=O)[C@@H]2CCCN2C(=O)[C@H](Cc2ccccc2)NC(=O)[C@H](Cc2ccc(O)cc2)NC(=O)[C@H](CCC(N)=O)NC(=O)[C@H](CCCNC(N)=O)NC(=O)[C@@H](NC(=O)CCC(C)C)CSSC[C@@H](C(N)=O)NC(=O)[C@H](CC(C)C)NC1=O [UPAR-174, iHex-[Cys-Cit-Gln-Tyr-Phe-Pro-Hyp-Ile-Leu-Cys]-NH2] ({Pentanoyl(4-Me)}-C[Cit]QYFP[Hyp]ILC-NH2; disulfide 1-10)	71	≤ 10
CCC[C@H](NC(=O)CCC(=O)O)C(=O)N[C@H]1CSSC[C@@H](C(N)=O)NC(=O)[C@H](CCC)NC(=O)[C@H]([C@@H](C)CC)NC(=O)[C@@H]2C[C@@H](O)CN2C(=O)[C@@H]2CCCN2C(=O)[C@H](Cc2ccccc2)NC(=O)[C@H](Cc2ccc(O)cc2)NC(=O)[C@H](CCCCNC(=O)CN2CCN(CC(=O)O)CCN(CC(=O)O)CCN(CC(=O)O)CC2)NC(=O)[C@H](CCCNC(N)=O)NC1=O [UPAR-293, HO-Succinyl-Nva-[Cys-Cit-Lys(DOTA)-Tyr-Phe-Pro-Hyp-Ile-Nva-Cys]-NH2] (Suc-[Nva]C[Cit]K(DOTA)YFP[Hyp]I[Nva]C-NH2; disulfide 2-11)	> 95	≤ 10
CC[C@H](C)[C@@H]1NC(=O)[C@@H](CCCNC(=N)N)NC(=O)[C@@H]2CCCN2C(=O)[C@H](Cc2ccccc2)NC(=O)[C@H](Cc2ccc(O)cc2)NC(=O)[C@H](CCCCNC(=O)CN2CCN(CC(=O)O)CCN(CC(=O)O)CCN(CC(=O)O)CC2)NC(=O)[C@H](CCCNC(N)=O)NC(=O)[C@@H](NC(=O)[C@H](CC(C)C)NC(=O)[C@H](CC(=O)O)NC(C)=O)CSSC[C@@H](C(N)=O)NC(=O)[C@H](CC(C)C)NC1=O [UPAR-306, Ac-Asp-Leu-[Cys-Cit-Lys(DOTA)-Tyr-Phe-Pro-arg-Ile-Leu-Cys]-NH2] (Ac-DLC[Cit]K(DOTA)YFP[dR]ILC-NH2; disulfide 3-12)	95	≤ 10
CC[C@H](C)[C@@H]1NC(=O)[C@@H](C)NC(=O)[C@@H]2CCCN2C(=O)[C@H](Cc2ccccc2)NC(=O)[C@H](Cc2ccc(O)cc2)NC(=O)[C@H](CCC(N)=O)NC(=O)[C@H](CCCNC(N)=O)NC(=O)[C@@H](NC(=O)[C@H](CC(C)C)NC(=O)COCCOCCNC(=O)CN2CCN(CC(=O)O)CCN(CC(=O)O)CCN(CC(=O)O)CC2)CSSC[C@@H](C(N)=O)NC(=O)[C@H](CC(C)C)NC1=O [UPAR-245, DOTA-O2Oc-Leu-[Cys-Cit-Gln-Tyr-Phe-Pro-ala-Ile-Leu-Cys]-NH2] ({DOTA-AEEA}-LC[Cit]QYFP[dA]ILC-NH2; disulfide 2-11)	74	≤ 10
CC[C@H](C)[C@@H]1NC(=O)[C@@H]2C[C@@H](NC(=O)CN3CCN(CC(=O)O)CCN(CC(=O)O)CCN(CC(=O)O)CC3)CN2C(=O)[C@@H]2CCCN2C(=O)[C@H](Cc2ccccc2)NC(=O)[C@H](Cc2ccc(O)cc2)NC(=O)[C@H](CCC(N)=O)NC(=O)[C@H](CCCNC(N)=O)NC(=O)[C@@H](NC(=O)CCC(C)C)CSSC[C@@H](C(N)=O)NC(=O)[C@H](CC(C)C)NC1=O [UPAR-389, iHex-[Cys-Cit-Gln-Tyr-Phe-Pro-Tap(DOTA)-Ile-Leu-Cys]-NH2] ({Pentanoyl(4-Me)}-C[Cit]QYFP[Pro(trans-4-NH2)](DOTA)ILC-NH2; disulfide 1-10)	95	≤ 10
CC[C@H](C)[C@@H]1NC(=O)[C@@H](C)NC(=O)[C@@H]2CCCN2C(=O)[C@H](Cc2ccccc2)NC(=O)[C@H](Cc2ccc(O)cc2)NC(=O)[C@H](CC(=O)O)NC(=O)[C@H](CCCNC(N)=O)NC(=O)[C@@H](NC(=O)CCC(C)C)CSSC[C@@H](C(N)=O)NC(=O)[C@H](CC(C)C)NC1=O [UPAR-434, iHex-[Cys-Cit-Asp-Tyr-Phe-Pro-ala-Ile-Leu-Cys]-NH2] ({Pentanoyl(4-Me)}-C[Cit]DYFP[dA]ILC-NH2; disulfide 1-10)	90	≤ 10
CC[C@H](C)[C@@H]1NC(=O)[C@@H](C)NC(=O)[C@@H]2CCCN2C(=O)[C@H](Cc2ccccc2)NC(=O)[C@H](Cc2ccc(O)cc2)NC(=O)[C@H](CCCCNC(=O)CN2CCN(CC(=O)O)CCN(CC(=O)O)CCN(CC(=O)O)CC2)NC(=O)[C@H](CCCNC(N)=O)NC(=O)[C@@H](NC(=O)[C@H](CC(C)C)NC(=O)[C@H](CC(=O)O)NC(C)=O)CSSC[C@@H](C(N)=O)NC(=O)[C@H](CC(C)C)NC1=O [UPAR-189, Ac-Asp-Leu-[Cys-Cit-Lys(DOTA)-Tyr-Phe-Pro-ala-Ile-Leu-Cys]-NH2] (Ac-DLC[Cit]K(DOTA)YFP[dA]ILC-NH2; disulfide 3-12)	> 95	≤ 10
CCCCC(=O)N[C@H]1CSSC[C@@H](C(N)=O)NC(=O)[C@H](CCC)NC(=O)[C@H]([C@@H](C)CC)NC(=O)[C@@H]2C[C@@H](O)CN2C(=O)[C@@H]2C[C@@H](O)CN2C(=O)[C@H](Cc2ccccc2)NC(=O)[C@H](Cc2ccc(O)cc2)NC(=O)[C@H](CCCCNC(=O)CN2CCN(CC(=O)O)CCN(CC(=O)O)CCN(CC(=O)O)CC2)NC(=O)[C@H](CCCNC(N)=O)NC1=O [UPAR-403, Pent-[Cys-Cit-Lys(DOTA)-Tyr-Phe-Hyp-Hyp-Ile-Nva-Cys]-NH2] (Pentanoyl-C[Cit]K(DOTA)YF[Hyp][Hyp]I[Nva]C-NH2; disulfide 1-10)	87	≤ 10
CC[C@H](C)[C@@H]1NC(=O)[C@@H]2CCCN2C(=O)[C@@H]2CCCN2C(=O)[C@H](Cc2ccccc2)NC(=O)[C@H](Cc2ccc(O)cc2)NC(=O)[C@H](CCCCNC(=O)CN2CCN(CC(=O)O)CCN(CC(=O)O)CCN(CC(=O)O)CC2)NC(=O)[C@H](CCCNC(N)=O)NC(=O)[C@@H](NC(=O)CCC(C)C)CSSC[C@@H](C(N)=O)NC(=O)[C@H](CC(C)C)NC1=O [UPAR-382, iHex-[Cys-Cit-Lys(DOTA)-Tyr-Phe-Pro-Pro-Ile-Leu-Cys]-NHz] ({Pentanoyl(4-Me)}-C[Cit]K(DOTA)YFPPILC-NH2; disulfide 1-10)	78	≤ 10
CC[C@H](C)[C@@H]1NC(=O)[C@@H](C)NC(=O)[C@@H]2CCCN2C(=O)[C@H](Cc2ccccc2)NC(=O)[C@H](Cc2ccc(O)cc2)NC(=O)[C@H](CCC(N)=O)NC(=O)[C@H](CCCNC(N)=O)NC(=O)[C@@H](NC(=O)CCC(C)C)CSSC[C@@H](C(N)=O)NC(=O)[C@H](CC(C)C)NC1=O [UPAR-338, iHex-[Cys-Cit-Gln-Tyr-Phe-Pro-ala-Ile-Leu-Cys]-NH2] ({Pentanoyl(4-Me)}-C[Cit]QYFP[dA]ILC-NH2; disulfide 1-10)	73	≤ 10
